Conditions: 303.15 K, Liquid, Vibrating tube method

CCCCCC(=O)OCC(COC(=O)CCCCC)(COC(=O)CCCCC)COC(=O)CCCCC [pentaerythritol tetrahexanoate]
Conditions | mass density [kg/m3]
14798 kPa | 997.6
14823 kPa | 997.5
14847 kPa | 997.5
14871 kPa | 997.6
14900 kPa | 997.6
15031 kPa | 997.7
15056 kPa | 997.7
15080 kPa | 997.7
15110 kPa | 997.8
15293 kPa | 997.8
15647 kPa | 998.1
15670 kPa | 998.2
15694 kPa | 998.1
15716 kPa | 998
15743 kPa | 998.1
15766 kPa | 998.1
15789 kPa | 998
15816 kPa | 998.1
15838 kPa | 998.2
15888 kPa | 998.2
15911 kPa | 998.2
15933 kPa | 998.3
15961 kPa | 998.4
15983 kPa | 998.3
16011 kPa | 998.3
16034 kPa | 998.3
16056 kPa | 998.4
16083 kPa | 998.3
16106 kPa | 998.4
16127 kPa | 998.2
16149 kPa | 998.4
16175 kPa | 998.4
16197 kPa | 998.3
16218 kPa | 998.4
16244 kPa | 998.5
16266 kPa | 998.4
16288 kPa | 998.4
16313 kPa | 998.4
16335 kPa | 998.5
16357 kPa | 998.5
16384 kPa | 998.5
16406 kPa | 998.7
16427 kPa | 998.5
16447 kPa | 998.5
16471 kPa | 998.6
16491 kPa | 998.5
16512 kPa | 998.6
16532 kPa | 998.5
16557 kPa | 998.7
16578 kPa | 998.7
16599 kPa | 998.5
16624 kPa | 998.6
16644 kPa | 998.7
16666 kPa | 998.7
16687 kPa | 998.7
16708 kPa | 998.5
16732 kPa | 998.7
16752 kPa | 998.7
16772 kPa | 998.7
16796 kPa | 998.7
16840 kPa | 998.8
16860 kPa | 998.9
16880 kPa | 998.8
16904 kPa | 998.8
16924 kPa | 998.8
16945 kPa | 998.9
16966 kPa | 998.9
16990 kPa | 998.8
17010 kPa | 998.9
17035 kPa | 999
17056 kPa | 999
17077 kPa | 999
17098 kPa | 999

From the NIST ThermoML archive (doi:10.1021/je060271a)
